Data as given in the NIST ThermoML archive (doi:10.1016/j.jct.2005.03.023).
Numbers after ± are expanded uncertainties.

Test: mn = molality of the nth substance listed, in mol/kg
Conditions: 101.3 kPa, Liquid

**Q.** Which mass density (278.15 K, m1 = 0.25) does the source give for O=C[C@H](O)[C@@H](O)[C@H](O)CO [D-xylose] + O here?
**A.** Its mass density is 1013.81 ± 0.39 kg/m3.

**Q.** What about the mass density (278.15 K, m1 = 0.4) of the same molecule?
**A.** Its mass density is 1021.78 ± 0.42 kg/m3.

**Q.** What about the mass density (278.15 K, m1 = 0.55) of the same molecule?
**A.** The mass density was 1029.49 ± 0.45 kg/m3.

**Q.** And the mass density (278.15 K, m1 = 0.7)?
**A.** The mass density was 1036.97 ± 0.48 kg/m3.

**Q.** And the mass density (278.15 K, m1 = 0.85)?
**A.** The mass density was 1044.24 ± 0.51 kg/m3.

**Q.** What about the mass density (278.15 K, m1 = 1) of the same molecule?
**A.** The mass density was 1051.27 ± 0.54 kg/m3.

**Q.** And the mass density (288.15 K, m1 = 0.25)?
**A.** Its mass density is 1012.76 ± 0.38 kg/m3.

**Q.** And the mass density (288.15 K, m1 = 0.4)?
**A.** Its mass density is 1020.47 ± 0.41 kg/m3.

**Q.** And the mass density (288.15 K, m1 = 0.55)?
**A.** The mass density was 1028.02 ± 0.45 kg/m3.

**Q.** What about the mass density (288.15 K, m1 = 0.7) of the same molecule?
**A.** The mass density was 1035.37 ± 0.48 kg/m3.

**Q.** What about the mass density (288.15 K, m1 = 0.85) of the same molecule?
**A.** The mass density was 1042.46 ± 0.51 kg/m3.

**Q.** What about the mass density (288.15 K, m1 = 1) of the same molecule?
**A.** The mass density was 1049.35 ± 0.53 kg/m3.

**Q.** What about the mass density (298.15 K, m1 = 0.25) of the same molecule?
**A.** Its mass density is 1010.39 ± 0.37 kg/m3.

**Q.** And the mass density (298.15 K, m1 = 0.4)?
**A.** The mass density was 1018.06 ± 0.4 kg/m3.

**Q.** And the mass density (298.15 K, m1 = 0.55)?
**A.** Its mass density is 1025.49 ± 0.43 kg/m3.

**Q.** What about the mass density (298.15 K, m1 = 0.7) of the same molecule?
**A.** The mass density was 1032.72 ± 0.47 kg/m3.

**Q.** And the mass density (298.15 K, m1 = 0.85)?
**A.** Its mass density is 1039.74 ± 0.49 kg/m3.

**Q.** And the mass density (298.15 K, m1 = 1)?
**A.** Its mass density is 1046.52 ± 0.52 kg/m3.

**Q.** What about the mass density (308.15 K, m1 = 0.25) of the same molecule?
**A.** Its mass density is 1007.15 ± 0.36 kg/m3.

**Q.** And the mass density (308.15 K, m1 = 0.4)?
**A.** Its mass density is 1014.77 ± 0.39 kg/m3.

**Q.** What about the mass density (308.15 K, m1 = 0.55) of the same molecule?
**A.** Its mass density is 1022.12 ± 0.42 kg/m3.

**Q.** And the mass density (308.15 K, m1 = 0.7)?
**A.** Its mass density is 1029.24 ± 0.45 kg/m3.

**Q.** And the mass density (308.15 K, m1 = 0.85)?
**A.** Its mass density is 1036.18 ± 0.48 kg/m3.

**Q.** And the mass density (308.15 K, m1 = 1)?
**A.** The mass density was 1042.87 ± 0.51 kg/m3.

**Q.** What about the mass density (318.15 K, m1 = 0.25) of the same molecule?
**A.** The mass density was 1003.29 ± 0.34 kg/m3.

**Q.** And the mass density (318.15 K, m1 = 0.4)?
**A.** Its mass density is 1010.79 ± 0.38 kg/m3.

**Q.** What about the mass density (318.15 K, m1 = 0.55) of the same molecule?
**A.** The mass density was 1018.05 ± 0.41 kg/m3.

**Q.** What about the mass density (318.15 K, m1 = 0.7) of the same molecule?
**A.** Its mass density is 1025.13 ± 0.44 kg/m3.

**Q.** What about the mass density (318.15 K, m1 = 0.85) of the same molecule?
**A.** Its mass density is 1031.95 ± 0.46 kg/m3.

**Q.** And the mass density (318.15 K, m1 = 1)?
**A.** Its mass density is 1038.63 ± 0.49 kg/m3.
